Earlier results on seven compounds are cited in patent publication US20180055813A1, “COMPOSITIONS AND METHODS FOR TREATING ATRIAL FIBRILLATION” (Edge Therapeutics, Inc., priority 2016, published 2018).

Where two headings read alike, the source gives them in different places.

Data set [1] relates to voltage-dependent sodium channels. The conditions noted are these: relative to phenytoin.
The subject of data set [2] is high-plateau action potentials.
For data set [3] the following is noted: phase III clinical trials, compared with placebo.
For data set [4] the following is noted: for incidence of postoperative AF: AFIST I, patients >60 years.
Data set [5] concerns K+ and Na+ currents, and L, P/Q and T-type calcium currents.
The target of a further data set is N-type calcium current (Homo sapiens, UniProt Q00975). The conditions noted are these: at 300 nM to 500 nM.
Chain of N-type calcium current (Q00975 whole entry): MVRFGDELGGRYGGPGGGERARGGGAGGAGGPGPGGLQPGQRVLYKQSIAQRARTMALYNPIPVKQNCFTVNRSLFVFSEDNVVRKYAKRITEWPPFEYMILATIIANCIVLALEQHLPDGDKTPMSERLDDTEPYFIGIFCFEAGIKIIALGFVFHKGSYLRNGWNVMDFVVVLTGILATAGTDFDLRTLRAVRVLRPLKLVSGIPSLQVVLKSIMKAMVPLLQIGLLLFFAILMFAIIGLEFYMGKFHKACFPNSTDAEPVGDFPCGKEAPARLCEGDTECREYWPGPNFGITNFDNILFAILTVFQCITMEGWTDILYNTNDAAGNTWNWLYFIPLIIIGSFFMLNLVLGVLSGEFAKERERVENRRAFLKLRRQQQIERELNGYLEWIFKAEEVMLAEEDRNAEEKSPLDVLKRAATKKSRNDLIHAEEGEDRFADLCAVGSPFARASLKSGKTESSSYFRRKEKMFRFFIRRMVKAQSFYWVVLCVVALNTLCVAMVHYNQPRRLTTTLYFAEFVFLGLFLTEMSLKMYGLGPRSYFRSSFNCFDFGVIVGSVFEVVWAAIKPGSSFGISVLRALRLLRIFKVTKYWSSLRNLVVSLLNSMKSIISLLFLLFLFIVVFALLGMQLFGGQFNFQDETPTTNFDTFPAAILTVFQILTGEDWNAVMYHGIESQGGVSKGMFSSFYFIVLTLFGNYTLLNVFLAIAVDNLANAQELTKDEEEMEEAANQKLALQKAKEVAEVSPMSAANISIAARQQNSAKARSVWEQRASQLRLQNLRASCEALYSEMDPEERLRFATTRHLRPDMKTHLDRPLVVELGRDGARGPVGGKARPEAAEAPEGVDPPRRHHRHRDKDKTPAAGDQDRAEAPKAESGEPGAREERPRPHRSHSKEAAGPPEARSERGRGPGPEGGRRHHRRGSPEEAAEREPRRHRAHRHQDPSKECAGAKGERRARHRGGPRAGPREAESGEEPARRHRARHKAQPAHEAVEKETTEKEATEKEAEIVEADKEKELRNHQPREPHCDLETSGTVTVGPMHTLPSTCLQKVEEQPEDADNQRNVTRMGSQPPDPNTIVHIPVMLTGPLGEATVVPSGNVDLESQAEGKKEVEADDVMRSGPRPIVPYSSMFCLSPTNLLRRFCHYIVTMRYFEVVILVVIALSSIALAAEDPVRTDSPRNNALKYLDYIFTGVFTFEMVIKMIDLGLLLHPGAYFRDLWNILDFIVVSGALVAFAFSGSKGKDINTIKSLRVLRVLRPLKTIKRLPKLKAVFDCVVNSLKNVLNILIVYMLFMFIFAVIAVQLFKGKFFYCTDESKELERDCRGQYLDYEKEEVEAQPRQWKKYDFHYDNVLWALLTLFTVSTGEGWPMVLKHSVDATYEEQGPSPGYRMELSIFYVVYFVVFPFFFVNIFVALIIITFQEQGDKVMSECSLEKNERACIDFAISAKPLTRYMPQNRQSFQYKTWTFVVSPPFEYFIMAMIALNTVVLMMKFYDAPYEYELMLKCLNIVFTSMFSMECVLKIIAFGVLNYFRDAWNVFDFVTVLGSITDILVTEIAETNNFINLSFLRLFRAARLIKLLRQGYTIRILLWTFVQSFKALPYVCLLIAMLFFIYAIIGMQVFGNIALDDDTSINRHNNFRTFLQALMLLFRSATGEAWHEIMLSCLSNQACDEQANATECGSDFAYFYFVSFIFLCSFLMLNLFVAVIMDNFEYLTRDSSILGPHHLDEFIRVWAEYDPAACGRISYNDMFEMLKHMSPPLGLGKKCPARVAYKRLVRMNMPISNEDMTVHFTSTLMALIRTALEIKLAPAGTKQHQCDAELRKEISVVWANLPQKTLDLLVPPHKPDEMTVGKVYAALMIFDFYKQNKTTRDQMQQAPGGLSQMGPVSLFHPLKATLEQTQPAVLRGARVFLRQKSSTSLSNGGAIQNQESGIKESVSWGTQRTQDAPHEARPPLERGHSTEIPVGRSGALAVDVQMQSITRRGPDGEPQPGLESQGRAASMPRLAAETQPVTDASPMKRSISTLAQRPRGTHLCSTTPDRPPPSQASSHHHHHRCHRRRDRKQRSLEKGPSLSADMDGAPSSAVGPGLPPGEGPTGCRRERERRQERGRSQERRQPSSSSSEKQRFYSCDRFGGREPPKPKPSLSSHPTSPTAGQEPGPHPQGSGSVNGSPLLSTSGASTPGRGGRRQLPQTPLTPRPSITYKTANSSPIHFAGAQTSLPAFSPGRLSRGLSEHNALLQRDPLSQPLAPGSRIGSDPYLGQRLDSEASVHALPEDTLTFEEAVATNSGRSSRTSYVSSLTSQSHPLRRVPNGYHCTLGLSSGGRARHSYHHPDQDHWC

For `CCCCC1=NC2(CCCC2)C(=O)N1Cc1ccc(-c2ccccc2-c2nnn[nH]2)cc1` [irbesartan], the “prevention of recurrence of AF” value (irbesartan plus amiodarone versus amiodarone alone) is given as “more effectively than amiodarone alone”.

Regarding `NC(=O)N1c2ccccc2C=Cc2ccccc21` [carbamazepine], in data set [1], the “faster rate of binding to depolarized channels compared to phenytoin” value was 5 fold and the “lower affinity for depolarized channels compared to phenytoin” value is listed as 3 fold.

For the compound `Cc1oc2ccccc2c1Cc1cc(I)c(OCC(=O)O)c(I)c1` [KB130015, 2-methyl-3-(3,5-diiodo-4-carboxymethoxybenzyl)benzofuran], the “QT lengthening / prolongation of high-plateau action potentials” value in data set [2] is “devoid of QT lengthening effects”.

Turning to `CCCCc1oc2ccc(NS(C)(=O)=O)cc2c1C(=O)c1ccc(OCCCN(CCCC)CCCC)cc1` [dronedarone, n-(2-butyl-3-(4-(3-dibutylaminopropoxy)-benzoyl)benzofuran-5-yl)-methanesulfonamide], the “lowering of risk of AF relapse” value in data set [3] was 25%.

As to `CCOC(=O)[C@H](CCc1ccccc1)N[C@@H](C)C(=O)N1CCC[C@H]1C(=O)O` [enalapril], the “relative risk reduction for the development of AF” value (compared to placebo) is 78%.

Turning to `CCCCc1oc2ccccc2c1C(=O)c1cc(I)c(OCCN(CC)CC)c(I)c1` [amiodarone], the “incidence of postoperative AF, patients” value in data set [4] (1-week pre-operative oral regimen, placebo 53%) is 25%; in data set [4] (postoperative intravenous treatment, placebo 47%), 35%; in data set [4] (treatment throughout the peri-operative period, placebo 25%) it was 16%. In addition, the “incidence of postoperative AF” value in data set [4] (amiodarone alone) is 35%; in data set [4] (amiodarone with concomitant postoperative β-blockers), 16%.

In the case of SNX-482, in the data set on R-type calcium current (neurohypophysial nerve endings, 40 nM concentration), the “block of R-type calcium current” value is listed as “blocks”. For the same compound, in the data set with R-type calcium current (preparations of the neuronal cell body, retinal ganglion cells and hippocampal pyramidal cells), the “effect on R-type current” value was “no significant effect”. The “effect on K+ and Na+ currents, and L, P/Q and T-type calcium currents” value in data set [5] was “no effect”. Also, the “N-type calcium current blocked” value at N-type calcium current is on record as 30-50%.
